Test results taken from patent US6391304B1, “Peptides derived from the ENV gene of the feline immunodeficiency virus and their applications” (Centre National de la Recherche Scientifique, priority 1997, dated 2002).
Values joined by “and” are separate entries in the source; they are usually repeats but may differ in a detail not shown here. Equal values may be shown once. “Also recorded” adds a separate entry of the source.

Legend:
[1] = tested on: immobilized peptide (SU2, SU5, TM2 or TM3-19); assay: ELISA anti-peptide titre during the immunization of cats; assay type: in vivo; settings: individual cats immunized with KLH-coupled peptide; absorbance at 405 nm greater than 0.1
Method: (§1) Groups of four cats 4½ months old are immunized subcutaneously with 120 μg of FIV peptide (approximately 250 μg of peptide coupled to KLH (keyhole limpet haemocyanin)), emulsified in complete Freund's adjuvant.
(§2) Four repeat immunizations are administered subcutaneously in an incomplete Freund's adjuvant, generally at intervals of 2-3 weeks, although the interval between the last 2 […] was 7 weeks.
(§3) The production on of antibodies is evaluated before the test by means of an ELISA using an immobilized peptide (SU2, SU5, TM2 or TM3-19) and immunoprecipitation. After the test, the seroconversion is monitored by an ELISA using immobilized envelope peptides and a recombinant FTV capsid protein.
(§4) The ELISA with the immobilized envelope peptides corresponding to the immunogenic domains SU2 and TM2 and with the immobilized recombinant p25 protein (FIV capsid protein) is carried out as described in Avraméas A. et al. (Res. Virol., 1993, 144, 209-218).
(§5) Microplates (Immunolon II, Dynatech) are coated with 0.5 μg/well for the peptides and with 0.1 μg/well for the p25 protein.
(§6) The tests are carried out in duplicate and the results are expressed as average values.
The anti-peptide titres before the test are expressed as the logarithm of the inverse of the last dilution of serum which gives an absorbance (at 405 nm) of greater than 0.1.

[2] = tested on: envelope glycoproteins of the Petaluma strain; assay: Immunoprecipitation of envelope glycoproteins by sera (metabolically labelled FL-4 cells); assay type: in vivo, FIV; settings: lysates of chronically infected FL-4 cells; groups of four cats
Description: The sera collected on the day of the test (at a dilution of 1/40) are used to immunoprecipitate the envelope glycoproteins derived from the metabolically labelled FL-4 cells and feline mononuclear cells (PBM cells) infected with the FIV Wo strain, as described in G. Pancino et al. (Virology, 1995, 206, 796-806).
The recognition of the envelope glycoproteins is estimated by immunoprecipitation of the biosynthetically labelled envelope glycoprotein with sera collected on the day of the test, as summarized in Table I.

FIV Petaluma strain = assay: Neutralization of infection of CrFK cells by sera of immunized cats; assay type: cell-based; settings: CrFK cell line
Method: The detection of antibodies neutralizing the infection of the CrFKs with the FIV Petaluma strain is carried out as described previously (Richardson J. et al., J. Gen. Virol., 1996, 77, 759-771).
To evaluate the function of the antibodies, the feline sera directed against the SU2 peptide are tested for their neutralizing value with respect to the infection of CrFK cells with the FIV Petaluma strain.

SU2 envelope peptide = assay: Seroconversion ELISA after the virulence test, SU2 peptide; assay type: in vivo, cats; settings: ELISA, seral dilution 1/25; individual cats
Method: (§7) The cats are subjected to a virulence test, one week after the final immunization, by means of an intraperitoneal inoculation of 10 CID50 of FIV Wo isolate, one CID50 corresponding to the dose capable of infecting 50% of the cats.
as §3, §4, §5, §6
(§8) After the test, the seroconversion against the envelope peptides and the p25 protein is evaluated at serum dilutions of 1/25 and 1/100, respectively.
(§9) The absorbance values (at 405 nm) are corrected by subtraction of the absorbance values obtained by binding with an immobilized control peptide.
(§10) The tests are normalized with reference to the binding of a mixture of serum from cats infected with FIV with a peptide representing the immunodominant domain of the FIV transmembrane glycoprotein (TM2) (Avraméas A. et al., Res. Virol., 1993, 144, 209-218).

TM2 envelope peptide = assay: Seroconversion ELISA after the virulence test, TM2 peptide; assay type: in vivo, cats
Method: as §7, §3, §4, §5, §6, §8, §9, §10

[3] = tested on: p25 recombinant FIV capsid protein; assay: Seroconversion ELISA after the virulence test, p25; assay type: in vivo, cats; settings: ELISA, seral dilution 1/100; individual cats
Method: as §7, §3, §4, §5, §6, §8, §9, §10

CD4+ T lymphocytes = assay: Counting of circulating CD4+ T lymphocytes by flow cytometry; assay type: in vivo, cats; settings: acute infection with FIV Wo, FIG. 2
Method: Counting of the CD4^+ T lymphocytes is carried out at regular intervals before the test, on the day of the test and at regular intervals during the acute infection.
The CD4^+ T lymphocytes are counted by flow cytometry, using monoclonal antibodies (Clinisciences).
To evaluate the effect of the immunization on the pathology associated with a primary infection, circulating CD4^+ lymphocytes are counted before and after the test with the FIV Wo strain.

FIV Wo isolate = assay: Plasmatic viral load by competitive RT-PCR after the virulence test; assay type: in vivo, cats; settings: after test with 10 CID50 of Wo isolate, relative to control cats, FIG. 3
Method: as §1, §2, §7
The plasma is filtered (0.45 μm) and the RNA not associated with cells is extracted directly from the filtered plasma using the Viral RNA kit (Qiagene) and eluted in 50 μl of water according to the manufacturer's instructions, and the RNA is then divided into aliquots and stored at −80° C.
A conserved region of the FIV gag gene is selected as a target sequence for the reverse transcription of the competitive RNA and the overlapping PCR amplification.
For the synthesis of the cDNA, 2.5 μl of viral RNA are mixed with 2.5 μl containing different numbers of copies of competitive RNA; typically, the various samples of competitive RNA are prepared using 5 semi-logarithmic dilutions, straddling the number of copies estimated in the biological sample.
The RNA is denatured at 65° C. for 5 minutes and immediately placed on ice. The reagents for the reverse transcription (15 μl) are added.
The final reaction mixtures contain 0.3 U/ml of random hexanucleotides (sequences of 6 randomly aligned nucleotides which make it possible theoretically to amplify any RNA fragment) (Pharmcia), 0.5 mM of dNTP, 10 mM of DTT, 1× of commercial buffer (Gibco BRL) and 100 U of Superscript II (Glbco BRL), in a volume of 20 μl.
The reactions are first carried out at 25° C. for 10 minutes to promote the hybridization of the primers, and then at 42° C. for 50 minutes. The reverse transcriptase is inactivated by incubation at 95° C. for 5 minutes.
The highly conserved sequences are selected as primers. The complementary DNA is amplified by overlapping PCR, using:
For the first amplification, the PCR reagents (80 μl) are added as a mixture with 20 μl of cDNA.
The DNA is denatured at 94° C. for 3 minutes, subjected to 28 cycles of amplification (94° C. 30 s/55° C. 30 s/72° C. 30 s) and to an elongation at 72° C. for 7 minutes.
For the overlapping amplification, 2 μl of the product of the first amplification is transferred into 98 μl of reaction mixture containing 200 μM of dNTP, 1.5 mM of MgCl2, 0.5 μM of each internal primer, 1× of commercial buffer (Gibco BRL) and 0.25 U of Taq polymerase (Gibco BRL).
The DNA is denatured at 94° C. for 3 minutes, subjected to 28 cycles of amplification (94° C. 30 s/52° C. 30 s/72° C. 30 s) and to an elongation at 72° C. for 7 minutes.
The amplification products (10 μl ) are subjected to electrophoresis on 2.75% agarose gel.
Digital images of the gels stained with ethidium bromide are obtained using the Appligene Imager and the densitometry analyses are carried out with the Image NIH software. The density of the competitive product is adjusted as a function of the difference between the length of the native sequence and that of the competitive sequence.
The logarithm of the ratio:density or competitive product/density of the native product, is plotted as a function of the logarithm of the number of copies of competitive RNA added to each reaction.
The best adjustment is determined by the least-squares method and the number of copies of native RNA corresponds to the intersection of the axis of the Xs (Piatak M. Jr. et al., Biotechniques, 1993, 14, 70-80).
The cumulative area under the curve (Dawson J., Drug Information J., 1994, 28, 723-732) is calculated from graphs illustrating the ratio: copies of viral RNA/ml of plasma/time, and compared with the Mann-Whitney test.

[4] = ELISA, seral dilution 1/25, individual cats

With “SU5: peptide of the SU5 domain of the FIV surface envelope glycoprotein, SEQ ID NO: 3, used as immunogen (QVVKQPDYLVVPGEVMEYKPRR)” the “Anti-peptide titre, 1st injection” value [1] was 5.01 logarithm of the inverse of the last dilution of serum and 5.31 logarithm of the inverse of the last dilution of serum and 4.71 logarithm of the inverse of the last dilution of serum and >5.61 logarithm of the inverse of the last dilution of serum, the “Anti-peptide titre, 2nd injection” value [1] was 5.31 logarithm of the inverse of the last dilution of serum (3×) and 5.01 logarithm of the inverse of the last dilution of serum and the “Anti-peptide titre, Day of the test” value [1] was 4.71 logarithm of the inverse of the last dilution of serum and 5.01 logarithm of the inverse of the last dilution of serum (3×). For the same substance, the “cats whose sera immunoprecipitate the envelope glycoproteins of the Petaluma strain” value [2] was “all the cats”, the “neutralizing antibodies in sera of immunized cats” value (FIV Petaluma strain) was “do not neutralize” and the “Binding of the sera to SU2, 3 weeks after the virulence test” value (SU2 envelope peptide) was 0 optical density. For the same substance, the “Binding of the sera to SU2, 4 weeks after the virulence test” value (SU2 envelope peptide) was 1.9 optical density and 0.5 optical density and 0 optical density (2×), the “Binding of the sera to SU2, 5 weeks after the virulence test” value (SU2 envelope peptide) was 2.4 optical density and 0.7 optical density and 0.1 optical density and 0 optical density and the “Binding of the sera to TM2, 3 weeks after the virulence test” value (TM2 envelope peptide; [4]) was 2.3 optical density and 0 optical density (2×) and 0.1 optical density. For the same substance, the “Binding of the sera to TM2, 4 weeks after the virulence test” value (TM2 envelope peptide; [4]) was 2.9 optical density and 2.8 optical density and 2.4 optical density and 0 optical density, the “Binding of the sera to TM2, 5 weeks after the virulence test” value (TM2 envelope peptide; [4]) was 3.0 optical density and 3.1 optical density and 2.8 optical density and 0 optical density and the “response against the TM2 peptide” value (TM2 envelope peptide; at 4 weeks after the test) was “developed a large response”. For the same substance, the “Binding of the sera to p25, 3 weeks after the virulence test” value [3] was 0.1 optical density and 0 optical density (3×), the “Binding of the sera to p25, 4 weeks after the virulence test” value [3] was 2.7 optical density and 1.0 optical density and 0.2 optical density and 0 optical density and the “Binding of the sera to p25, 5 weeks after the virulence test” value [3] was 2.9 optical density and 2.2 optical density and 0.8 optical density and 0 optical density. The “number of CD4+ lymphocytes after the infection” value (CD4+ T lymphocytes) was “gradual reduction” and the “course of the primary infection (viral RNA in plasma, viral dissemination)” value (FIV Wo isolate) was “the acute infection of 3 cats followed kinetics similar to those of the control cats, while infection in one of the cats appears in a retarded manner; also recorded: do not modify the course of the infection”.
